Source: PubChem BioAssay (NCI)
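48-hour exposure; five concentrations; linearly interpolated endpoints. GI50 = concentration required for 50% inhibition of growth. TGI: total growth inhibition.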

Legend:
Assay in all cases: growth of human tumour cells (NCI), 48 h
CAKI-1 renal = system: CAKI-1 renal
SNB-75 CNS = system: SNB-75 CNS
RXF 393 renal = system: RXF 393 renal
ACHN renal = system: ACHN renal
KM12 colon = system: KM12 colon
SNB-19 CNS = system: SNB-19 CNS
SK-MEL-5 melanoma = system: SK-MEL-5 melanoma
SW-620 colon = system: SW-620 colon
A498 renal = system: A498 renal
OVCAR-4 ovarian = system: OVCAR-4 ovarian
UO-31 renal = system: UO-31 renal
CCRF-CEM leukemia = system: CCRF-CEM leukemia
OVCAR-5 ovarian = system: OVCAR-5 ovarian
IGROV1 ovarian = system: IGROV1 ovarian
MALME-3M melanoma = system: MALME-3M melanoma
SN12C renal = system: SN12C renal
SR leukemia = system: SR leukemia
SF-295 CNS = system: SF-295 CNS
OVCAR-3 ovarian = system: OVCAR-3 ovarian
TK-10 renal = system: TK-10 renal
SK-MEL-2 melanoma = system: SK-MEL-2 melanoma
BT-549 breast = system: BT-549 breast
MDA-MB-231 breast = system: MDA-MB-231 breast
SK-MEL-28 melanoma = system: SK-MEL-28 melanoma
LOX IMVI melanoma = system: LOX IMVI melanoma
NCI-H226 lung = system: NCI-H226 lung
SF-539 CNS = system: SF-539 CNS
EKVX NSCLC = system: EKVX NSCLC
NCI-H460 lung = system: NCI-H460 lung
COLO 205 colon = system: COLO 205 colon
NCI-H23 lung = system: NCI-H23 lung
SF-268 CNS = system: SF-268 CNS
MDA-MB-435 = system: MDA-MB-435
RPMI-8226 leukemia = system: RPMI-8226 leukemia
UACC-257 melanoma = system: UACC-257 melanoma
HCT-15 colon = system: HCT-15 colon
DU-145 prostate = system: DU-145 prostate
786-0 renal = system: 786-0 renal
HOP-92 NSCLC = system: HOP-92 NSCLC
UACC-62 melanoma = system: UACC-62 melanoma
PC-3 prostate = system: PC-3 prostate
HCC-2998 colon = system: HCC-2998 colon
SK-OV-3 ovarian = system: SK-OV-3 ovarian
M14 melanoma = system: M14 melanoma
A549 NSCLC = system: A549 NSCLC
K-562 leukemia = system: K-562 leukemia
NCI-H522 lung = system: NCI-H522 lung
HT29 colon = system: HT29 colon
HCT-116 colon = system: HCT-116 colon
HOP-62 NSCLC = system: HOP-62 NSCLC
MOLT-4 leukemia = system: MOLT-4 leukemia
OVCAR-8 ovarian = system: OVCAR-8 ovarian
T-47D breast = system: T-47D breast
U251 CNS = system: U251 CNS
NCI/ADR-RES ovarian = system: NCI/ADR-RES ovarian
HS 578T breast = system: HS 578T breast
HL-60(TB) leukemia = system: HL-60(TB) leukemia
MCF7 breast = system: MCF7 breast

Compound O=C(CCN1CCCC1)Nc1ccc2c(Nc3ccc(Br)cc3)c3ccccc3nc2c1 has a GI50 (CAKI-1 renal) of 1530 nM, a TGI (CAKI-1 renal) of 2870 nM and a GI50 (SNB-75 CNS) of 1370 nM. For the same compound, the TGI (SNB-75 CNS) was 2680 nM, the GI50 (RXF 393 renal) was 1230 nM and the TGI (RXF 393 renal) was 2570 nM. The GI50 (ACHN renal) was 1230 nM, the TGI (ACHN renal) was 2480 nM and the GI50 (KM12 colon) was 1570 nM. The TGI (KM12 colon) was 3290 nM, the GI50 (SNB-19 CNS) was 1440 nM and the TGI (SNB-19 CNS) was 2790 nM. It also gave a GI50 (SK-MEL-5 melanoma) of 1570 nM, a TGI (SK-MEL-5 melanoma) of 2920 nM and a GI50 (SW-620 colon) of 1240 nM. The TGI (SW-620 colon) was 2640 nM, the GI50 (A498 renal) was 1700 nM and the TGI (A498 renal) was 5820 nM. The GI50 (OVCAR-4 ovarian) was 1510 nM, the TGI (OVCAR-4 ovarian) was 2920 nM and the GI50 (UO-31 renal) was 1330 nM. The TGI (UO-31 renal) was 2610 nM, the GI50 (CCRF-CEM leukemia) was 494 nM and the TGI (CCRF-CEM leukemia) was 2830 nM. For the same compound, the GI50 (OVCAR-5 ovarian) was 1630 nM, the TGI (OVCAR-5 ovarian) was 3030 nM and the GI50 (IGROV1 ovarian) was 1230 nM. The TGI (IGROV1 ovarian) was 2590 nM, the GI50 (MALME-3M melanoma) was 1620 nM and the TGI (MALME-3M melanoma) was 3090 nM. It also gave a GI50 (SN12C renal) of 1300 nM, a TGI (SN12C renal) of 2690 nM and a GI50 (SR leukemia) of 288 nM. It also gave a TGI (SR leukemia) of 2580 nM, a GI50 (SF-295 CNS) of 1590 nM and a TGI (SF-295 CNS) of 3020 nM. It also gave a GI50 (OVCAR-3 ovarian) of 1610 nM, a TGI (OVCAR-3 ovarian) of 3110 nM and a GI50 (TK-10 renal) of 1720 nM. For the same compound, the TGI (TK-10 renal) was 3370 nM, the GI50 (SK-MEL-2 melanoma) was 1980 nM and the TGI (SK-MEL-2 melanoma) was 3760 nM. It also gave a GI50 (BT-549 breast) of 1440 nM, a TGI (BT-549 breast) of 3000 nM and a GI50 (MDA-MB-231 breast) of 1570 nM. For the same compound, the TGI (MDA-MB-231 breast) was 2990 nM, the GI50 (SK-MEL-28 melanoma) was 1630 nM and the TGI (SK-MEL-28 melanoma) was 3020 nM. For the same compound, the GI50 (LOX IMVI melanoma) was 1000 nM, the TGI (LOX IMVI melanoma) was 2240 nM and the GI50 (NCI-H226 lung) was 1390 nM. The TGI (NCI-H226 lung) was 3020 nM, the GI50 (SF-539 CNS) was 1550 nM and the TGI (SF-539 CNS) was 2950 nM. It also gave a GI50 (EKVX NSCLC) of 1590 nM, a TGI (EKVX NSCLC) of 3050 nM and a GI50 (NCI-H460 lung) of 337 nM. It also gave a TGI (NCI-H460 lung) of 1550 nM, a GI50 (COLO 205 colon) of 1850 nM and a TGI (COLO 205 colon) of 4330 nM. It also gave a GI50 (NCI-H23 lung) of 1470 nM, a TGI (NCI-H23 lung) of 2920 nM and a GI50 (SF-268 CNS) of 1330 nM. For the same compound, the TGI (SF-268 CNS) was 2810 nM, the GI50 (MDA-MB-435) was 1680 nM and the TGI (MDA-MB-435) was 3100 nM. For the same compound, the GI50 (RPMI-8226 leukemia) was 1730 nM, the TGI (RPMI-8226 leukemia) was 6070 nM and the GI50 (UACC-257 melanoma) was 1890 nM. For the same compound, the TGI (UACC-257 melanoma) was 3700 nM, the GI50 (HCT-15 colon) was 1160 nM and the TGI (HCT-15 colon) was 2500 nM. For the same compound, the GI50 (DU-145 prostate) was 798 nM, the TGI (DU-145 prostate) was 2070 nM and the GI50 (786-0 renal) was 1500 nM. The TGI (786-0 renal) was 3020 nM, the GI50 (HOP-92 NSCLC) was 1310 nM and the TGI (HOP-92 NSCLC) was 2710 nM. It also gave a GI50 (UACC-62 melanoma) of 1640 nM, a TGI (UACC-62 melanoma) of 3120 nM and a GI50 (PC-3 prostate) of 1400 nM. The TGI (PC-3 prostate) was 3040 nM, the GI50 (HCC-2998 colon) was 1260 nM and the TGI (HCC-2998 colon) was 2730 nM.
COc1cccc2c1C(=O)c1c(O)c3c(c(O)c1C2=O)CC(O)(C(C)=O)CC3OC1OC(COC(C)=O)C(OC(C)=O)C(OC(C)=O)C1OC(C)=O (stereo not given) gave a TGI (SK-OV-3 ovarian) greater than 100000 nM, a TGI (SNB-75 CNS) of 27000 nM and a TGI (M14 melanoma) greater than 100000 nM. It also gave a TGI (RXF 393 renal) of 7250 nM, a TGI (ACHN renal) of 87600 nM and a TGI (KM12 colon) greater than 100000 nM. It also gave a TGI (A549 NSCLC) greater than 100000 nM, a TGI (K-562 leukemia) greater than 100000 nM and a TGI (NCI-H522 lung) greater than 100000 nM. The TGI (SNB-19 CNS) was 42100 nM, the TGI (SK-MEL-5 melanoma) was greater than 100000 nM and the TGI (SW-620 colon) was greater than 100000 nM. It also gave a TGI (HT29 colon) greater than 100000 nM, a TGI (OVCAR-4 ovarian) of 53300 nM and a TGI (UO-31 renal) greater than 100000 nM. The TGI (CCRF-CEM leukemia) was 131 nM, the TGI (OVCAR-5 ovarian) was 96600 nM and the TGI (IGROV1 ovarian) was 47500 nM. It also gave a TGI (HCT-116 colon) greater than 100000 nM, a TGI (MALME-3M melanoma) greater than 100000 nM and a TGI (SN12C renal) greater than 100000 nM. For the same compound, the TGI (HOP-62 NSCLC) was 33200 nM, the TGI (SR leukemia) was 25800 nM and the TGI (SF-295 CNS) was 62800 nM. It also gave a TGI (OVCAR-3 ovarian) of 31200 nM, a TGI (MOLT-4 leukemia) of 36900 nM and a TGI (TK-10 renal) of 61800 nM. It also gave a TGI (SK-MEL-2 melanoma) greater than 100000 nM, a TGI (MDA-MB-231 breast) of 63700 nM and a TGI (SK-MEL-28 melanoma) greater than 100000 nM. It also gave a TGI (OVCAR-8 ovarian) of 37200 nM, a TGI (LOX IMVI melanoma) greater than 100000 nM and a TGI (SF-539 CNS) of 39700 nM. It also gave a TGI (EKVX NSCLC) of 27400 nM, a TGI (T-47D breast) greater than 100000 nM and a TGI (U251 CNS) of 27500 nM. It also gave a TGI (NCI/ADR-RES ovarian) greater than 100000 nM, a TGI (HS 578T breast) of 64800 nM and a TGI (NCI-H460 lung) greater than 100000 nM. It also gave a TGI (COLO 205 colon) greater than 100000 nM, a TGI (HL-60(TB) leukemia) greater than 100000 nM and a TGI (SF-268 CNS) of 55100 nM. For the same compound, the TGI (MDA-MB-435) was greater than 100000 nM, the TGI (MCF7 breast) was greater than 100000 nM and the TGI (UACC-257 melanoma) was 36600 nM. The TGI (HCT-15 colon) was greater than 100000 nM, the TGI (DU-145 prostate) was greater than 100000 nM and the TGI (786-0 renal) was 56300 nM. For the same compound, the TGI (HOP-92 NSCLC) was 32200 nM, the TGI (UACC-62 melanoma) was greater than 100000 nM and the TGI (PC-3 prostate) was greater than 100000 nM.
